Tests used:
[1] = system: Maize coleoptiles; assay: Effect of FB1 and AP1 on maize coleoptiles (injury evaluation); design: key to Injury or lack thereof of maize coleoptiles: + = brown necrotic discoloration of coleoptile; − = no symptoms (same as water control); details: for Injury or lack thereof of maize coleoptiles: 2 days dark at 28° C. then 3 days light
Method: Maize coleoptiles from 4 day dark-grown germinated maize seeds were excised above the growing point and placed in 96-well microliter plates in the presence of 60 microliters of sterile distilled water containing FB1 or AP1 at approximately equimolar concentrations of 1.5, 0.5, 0.15, 0.05, 0.015, 0.005, 0.0015, or 0.0005 millimolar, along with water controls. After 2 days in the dark at 28° C. the coleoptiles were placed in the light and incubated another 3 days.

[2] = system: BMS cells; assay: Effect of FB1 and AP1 on growth of maize tissue cultured cells (Black Mexican Sweet, BMS); type: cell-based; details: for concentration at which growth of BMS cells was inhibited: 1 week, liquid culture, compared to water control wells
Method: FB1 or AP1 at various concentrations was added to suspensions of BMS cells growing in liquid culture medium in 96-well polystyrene plates. After 1 week the cell density in wells was observed under low power magnification and growth of toxin-treated wells was compared to control wells that received water. […] This represents an approximate 100-fold difference in toxicity to maize tissue-cultured cells. […] AP1 was not tested in that study, however.

[3] = system: Lemna tissues; details: Vesonder et al. (1992); cited from earlier work
[4] = system: tomato; details: Lamprecht et al. (1994); cited from earlier work
[5] = system: maize callus; details: solid medium; Van Asch et al. (1992); cited from earlier work

Compound | Injury or lack thereof of maize coleoptiles ([1]; 1.5 mM) | Injury or lack thereof of maize coleoptiles ([1]; .0005 mM) | Injury or lack thereof of maize coleoptiles ([1]; .0015 mM) | Injury or lack thereof of maize coleoptiles ([1]; .005 mM) | Injury or lack thereof of maize coleoptiles ([1]; .015 mM) | Injury or lack thereof of maize coleoptiles ([1]; .05 mM) | Injury or lack thereof of maize coleoptiles ([1]; .15 mM) | Injury or lack thereof of maize coleoptiles ([1]; .5 mM) | difference in toxicity between FB1 and AP1 to maize coleoptiles ([1]; AP1 less toxic than FB1) [fold] | concentration at which growth of BMS cells was inhibited [2] [nM] | difference in toxicity to maize tissue-cultured cells (FB1 vs AP1) ([2]; AP1 less toxic than FB1) [fold] | AP1 less toxic (than FB1) in Lemna tissues [3] | reduction in toxicity to tomato by AP1 versus FB1 [4] [fold] | concentration giving significant inhibition of maize callus [5] [nM]
CCCC[C@@H](C)[C@@H](O)[C@@H](O)C[C@@H](C)C[C@H](O)CCCC[C@@H](O)C[C@H](O)[C@H](C)N [AP1] | + | − | − | − | − | − | − | − | ≥ 30 | 40000 | ~100 | approximately 40 fold | ~100 | 
CCCC[C@@H](C)[C@@H](OC(=O)C[C@@H](CC(=O)O)C(=O)O)[C@H](C[C@@H](C)C[C@H](O)CCCC[C@@H](O)C[C@H](O)[C@H](C)N)OC(=O)C[C@@H](CC(=O)O)C(=O)O [FB1, fumonisin B1] | + | − | − | − |  | + | + | + |  | 400 |  |  |  | 1400
